In patent US10738028B2, “Spiro three-membered ring, spiro five-membered ring peptide deformylase inhibitor and use thereof in antibacteria and anti-tumor” (priority 2016, dated 2020):
≈ marks a conversion by molar mass, not a printed value.

Legend:
Format in all cases: cell-based
[1] = tested on: Enterococcus faecalis (EFA); assay: MIC, two-fold agar dilution (CLSI), clinical isolates
Text: (§1) 1. The invention adopts the two-fold agar dilution method recommended by the operating procedure of antimicrobial susceptibility testing set by American Clinical and Laboratory Standards Institute (CLSI) to determine the Minimum Inhibitory Concentration (MIC) of the test samples against the tested strains.

[2] = tested on: Enterococcus faecium (EFM); assay: as above
Text: as §1

[3] = tested on: Escherichia coli (including ESBLs, non-ESBLs); assay: as above
Text: as §1

[4] = tested on: Moraxella catarrhalis (BCA); assay: as above
Text: as §1

[5] = tested on: Streptococcus pneoumoniae (SPN); assay: as above
Text: as §1

[6] = tested on: methicillin-resistant Staphylococcus aureus (MRSA); assay: as above
Text: as §1

[7] = tested on: methicillin-resistant Staphylococcus epidermidis (MRSE); assay: as above
Text: as §1

[8] = tested on: methicillin-sensitive Staphylococcus aureus (MSSA); assay: as above
Text: as §1

[9] = tested on: methicillin-sensitive Staphylococcus epidermidis (MSSE); assay: as above
Text: as §1

[10] = tested on: HCT-116 colorectal cancer cell line; assay: CCK-8 proliferation inhibition; conditions: Homo sapiens, HCT-116, 72 h, concentration of 30 μM; 72 hours; CCK-8; read-out: HCT116 inhibition rate/%
Description: (1) HCT-116 colorectal cancer cell line, A549 lung cancer cell line, MGC-803 gastric cancer cell line, BEL-7402 liver cancer cell line, Jurkat T cell leukemia cell line, HL60 acute myeloid leukemia cell line, Hela cervical cancer cell line, MCF-7 breast cancer cell line, PC3 prostate cancer cell line and SAOS-2 osteosarcoma cell line were made into single cell suspension, 180 μL of which was inoculated into 96-well culture plate, which was cultured overnight in CO2 incubator (37° C., 5% CO2, 95% air).
(2) Each of the spiro three-membered ring, spiro five membered ring peptide deformylase inhibitors was dissolved in DMSO, and was further formulated into drug solution with required different final concentration using corresponding cell culture medium. The drug solutions were added to the above cells respectively (20 μL/well), with the control group added with 1‰ DMSO, and cultured in a CO2 incubator for 72 hours.
(3) After incubation for 72 hours, the culture solution was decanted, and 100 μL of 1:10 diluted CCK-8 solution was added.
Wherein, in step (1), the concentration of the single cell suspension was 2000 cells/well.
Wherein, in step (2), HCT-116 cells were cultured in McCoy's 5A medium (containing 10% newborn bovine serum, 1% double antibody); A549 and PC3 cells were cultured in F12 medium (containing 10% newborn bovine serum, 1% double antibody); MGC-803, BEL-7402, SAOS-2, Jurkat and HL60 cells were cultured in 1640 medium (containing 10% newborn bovine serum, 1% double antibody); and MCF-7 and Hela cells were cultured in DMEM high glucose medium (containing 10% newborn bovine serum, 1% double antibody).

Question: Which results are given for CCCC[C@H](CN(O)C=O)C(=O)N1CC2(CC2)C[C@H]1C(=O)Nc1ccc(N2CCOCC2)cc1 [Example 14]?
Answer: MIC (anti-bacterial activity) ([1]; strain EFA 15-1): 8 µg/mL (≈ 16.9 µM); MIC (anti-bacterial activity) ([1]; strain EFA 15-2): 8 µg/mL (≈ 16.9 µM); MIC (anti-bacterial activity) ([1]; strain EFA 15-3): 2 µg/mL (≈ 4.23 µM); MIC (anti-bacterial activity) ([1]; strain EFA 15-4): 8 µg/mL (≈ 16.9 µM); MIC (anti-bacterial activity) ([1]; strain EFA 15-5): 8 µg/mL (≈ 16.9 µM); MIC (anti-bacterial activity) ([1]; strain EFA 15-6): 8 µg/mL (≈ 16.9 µM); MIC (anti-bacterial activity) ([1]; strain EFA 15-9): 8 µg/mL (≈ 16.9 µM); MIC (anti-bacterial activity) ([2]; strain EFM 15-1): 1 µg/mL (≈ 2.12 µM); MIC (anti-bacterial activity) ([2]; strain EFM 15-2): 2 µg/mL (≈ 4.23 µM); MIC (anti-bacterial activity) ([2]; strain EFM 15-3): 0.5 µg/mL (≈ 1.06 µM); MIC (anti-bacterial activity) ([2]; strain EFM 15-4): 4 µg/mL (≈ 8.46 µM); MIC (anti-bacterial activity) ([2]; strain EFM 15-5): 0.5 µg/mL (≈ 1.06 µM); MIC (anti-bacterial activity) ([2]; strain EFM 15-6): 2 µg/mL (≈ 4.23 µM); MIC (anti-bacterial activity) ([3]; strain ECO+ 15-1): > 32 µg/mL; MIC (anti-bacterial activity) ([3]; strain ECO+ 15-2): > 32 µg/mL; MIC (anti-bacterial activity) ([3]; strain ECO+ 15-3): > 32 µg/mL; MIC (anti-bacterial activity) ([3]; strain ECO+ 15-4): > 32 µg/mL; MIC (anti-bacterial activity) ([3]; strain ECO− 15-1): > 32 µg/mL; MIC (anti-bacterial activity) ([3]; strain ECO− 15-2): > 32 µg/mL; MIC (anti-bacterial activity) ([3]; strain ECO− 15-3): > 32 µg/mL; MIC (anti-bacterial activity) ([3]; strain ECO− 15-4): > 32 µg/mL; MIC (anti-bacterial activity) ([4]; strain BCA 14-1): 4 µg/mL (≈ 8.46 µM); MIC (anti-bacterial activity) ([4]; strain BCA 14-4): 2 µg/mL (≈ 4.23 µM); MIC (anti-bacterial activity) ([4]; strain BCA 14-5): 2 µg/mL (≈ 4.23 µM); MIC (anti-bacterial activity) ([4]; strain BCA 14-6): 2 µg/mL (≈ 4.23 µM); MIC (anti-bacterial activity) ([4]; strain BCA 14-7): 1 µg/mL (≈ 2.12 µM); MIC (anti-bacterial activity) ([4]; strain BCA 14-8): 2 µg/mL (≈ 4.23 µM); MIC (anti-bacterial activity) ([4]; strain BCA 14-10): 0.5 µg/mL (≈ 1.06 µM); MIC (anti-bacterial activity) ([5]; strain SPN 16-2): 8 µg/mL (≈ 16.9 µM); MIC (anti-bacterial activity) ([5]; strain SPN 16-4): 0.5 µg/mL (≈ 1.06 µM); MIC (anti-bacterial activity) ([6]; strain MRSA 15-1): 1 µg/mL (≈ 2.12 µM); MIC (anti-bacterial activity) ([6]; strain MRSA 15-2): 1 µg/mL (≈ 2.12 µM); MIC (anti-bacterial activity) ([6]; strain MRSA 15-3): 1 µg/mL (≈ 2.12 µM); MIC (anti-bacterial activity) ([6]; strain MRSA 15-4): 1 µg/mL (≈ 2.12 µM); MIC (anti-bacterial activity) ([7]; strain MRSE 15-1): 0.25 µg/mL (≈ 0.529 µM); MIC (anti-bacterial activity) ([7]; strain MRSE 15-2): 0.25 µg/mL (≈ 0.529 µM); MIC (anti-bacterial activity) ([7]; strain MRSE 15-3): 1 µg/mL (≈ 2.12 µM); MIC (anti-bacterial activity) ([7]; strain MRSE 15-7): 1 µg/mL (≈ 2.12 µM); MIC (anti-bacterial activity) ([8]; strain MSSA 15-3): 1 µg/mL (≈ 2.12 µM); MIC (anti-bacterial activity) ([8]; strain MSSA 15-4): 1 µg/mL (≈ 2.12 µM); MIC (anti-bacterial activity) ([8]; strain MSSA 15-5): 0.25 µg/mL (≈ 0.529 µM); MIC (anti-bacterial activity) ([8]; strain MSSA 15-6): 1 µg/mL (≈ 2.12 µM); MIC (anti-bacterial activity) ([9]; strain MSSE 15-3): 0.25 µg/mL (≈ 0.529 µM); MIC (anti-bacterial activity) ([9]; strain MSSE 15-4): 0.25 µg/mL (≈ 0.529 µM); MIC (anti-bacterial activity) ([9]; strain MSSE 15-5): 0.25 µg/mL (≈ 0.529 µM); MIC (anti-bacterial activity) ([9]; strain MSSE 15-6): 0.125 µg/mL (≈ 0.265 µM); inhibition at 30 µM [10]: 21%
